{
  "source": "patent EP1288226A1",
  "about": "“Modification of the expression levels of Toll-like receptor familiy members for influencing neurodegeneration and neuroprotection in the human central nervous system” (NEDERLANDSE ORGANISATIE VOOR …, priority 2001, dated 2003)",
  "assay_in_all_cases": "TLR expression in primary human microglia after stimulation, semi-quantitative RT-PCR",
  "format_in_all_cases": "cell-based",
  "conditions_in_all_cases": "aggregated peptide 5 µM, 6 h or 24 h",
  "key": {"TLR3": {"system": "TLR3", "procedure": "(§1) Primary human microglia, oligodendrocytes and astrocytes used in this study were isolated from the human white matter samples obtained from the patients listed in Table 1, as previously described (Bajramovic et al., 2000a and 2000b; De Groot et al., 2000). Briefly, brain tissues dissected from corpus callosum or subcortical white matter were collected and blood vessels were removed. After a 20-min digestion in 0.25 % (w/v) trypsine (Sigma, St. Louis, MO) and 0.1 mg/ml DNAse (Boehringer Mannheim, Mannheim, Germany) the cell suspension was gently triturated and washed with DMEM/HAM-F10 medium containing 10 % (v/v) FCS and antibiotic supplements. After passage through a 100-µm filter, myelin was removed by Percoll gradient centrifugation. Erythrocytes were lysed by a 15-min incubation on ice with 155 mM NH4Cl, 1 mM KHCO3, 0.2 % (w/v) BSA.\n(§2) Primary cultures of microglia, astrocytes and oligodendrocytes were set up in DMEM/HAM-F10 medium containing 10 % (v/v) FCS and antibiotic supplements. Recombinant human granulocyte-macrophage colony stimulating factor (rhGM-CSF, PeproTech Inc, USA) was added to microglial cultures every 3 days at a final concentration of […]. Cells were analyzed for TLR expression after 10-14 days following the start of the culture.\n(§3) Total cellular RNA was isolated from human glia cells using RNAZol™B (Campro scientific, Veenendaal, The Netherlands) and 2.5 µg RNA was reverse transcribed, using reverse transcription system (Promega, Madison, USA). PCR amplifications were performed on 1 µl copy DNA and 49 µl PCR mix (40 µl milliQ + 5 µl MgCl2 (see below for concentration) + 1 µl 10 mM dNTP mix + 1 µl 20 pmol/µl primer + 1 µl 20 pmol/µl anti sense primer and 0.2 µl taq polymerase). For β-actin, TLR1, TLR2, TLR3, TLR5, TLR6, TLR7 and TLR 9, 22 mM MgCl2 was used, for TLR4, 15 mM MgCl2 and for TLR8, 30 mM MgCl2. Amounts of TLR-encoding mRNA for each TLR were calculated by comparing the yield of each amplicon after 40 cycles to that for β-actin, and by determining the amounts of β-actin encoding mRNA in each sample by competitive quantitative RT-PCR as described previously (Bajramovic et al., 2000a; Bajramovic et al., 2000b).\n(§4) Amyloid-β-protein-derived peptide 1-42 (Bachem, Bubendorf, Switzerland) was dissolved in water at 1 mM and kept at 37°C for 1 week to allow for aggregation to occur. The aggregated peptide was added to cultured microglia at a final concentration of 5 µM and TLR expression was determined as described above after varying periods of incubation time. As another CNS-derived stimulant, human recombinant alpha B-crystallin (prepared by TNO Prevention and Health, Leiden) was used at a final concentration of 15 µg/mL."}, "other TLR": {"system": "other TLR", "procedure": "as §1, §2, §3, §4"}, "TLR2": {"system": "TLR2", "procedure": "as §1, §2, §3, §4"}, "[1]": {"conditions": "listed as Amyloid β protein-derived peptide 1-42"}, "[2]": {"conditions": "listed as amyloid β-protein derived peptide 1-42"}},
  "data": [
    {"substance": "amyloid β protein-derived peptide 1-42: Amyloid-β-protein-derived peptide 1-42 (Bachem), dissolved in water at 1 mM and kept at 37°C for 1 week to allow aggregation", "values": [
      {"measurement": "levels of TLR3-encoding mRNA", "setting": "TLR3", "result": "stronger inductive effects"},
      {"measurement": "levels of TLR3-encoding mRNA", "setting": "TLR3; [1]", "result": "elevated expression"},
      {"measurement": "levels of TLR3-encoding mRNA", "setting": "TLR3; [2]", "result": "strong effects"},
      {"measurement": "expression of mRNA encoding other TLR", "setting": "other TLR", "result": "not influenced"},
      {"measurement": "expression of mRNA encoding other TLR", "setting": "other TLR; [1]", "result": "not affecting"},
      {"measurement": "levels of TLR2-encoding mRNA", "setting": "TLR2", "result": "rapid mild inductive effect"},
      {"measurement": "levels of TLR2-encoding mRNA", "setting": "TLR2; [1]", "result": "elevated expression"},
      {"measurement": "levels of TLR2-encoding mRNA", "setting": "TLR2; [2]", "result": "strong effects"}
    ]}
  ]
}
